This is an account of results in patent publication US10611740B2, “Aryl dihydro-2H-benzo[b][1,4]oxazine sulfonamide and related compounds for use as agonists of RORγ and the treatment of disease” (Lycera Corporation, priority 2015, dated 2020).

In one assay the target is T1, Gal4-RORγ-LBD (Homo sapiens, UniProt P51449).
T1 construct: expressed in transfected cells; host or cells: HEK-293 cells (pcDNA3.1neo plasmid)
T1 sequence (P51449 269-508 limits assumed): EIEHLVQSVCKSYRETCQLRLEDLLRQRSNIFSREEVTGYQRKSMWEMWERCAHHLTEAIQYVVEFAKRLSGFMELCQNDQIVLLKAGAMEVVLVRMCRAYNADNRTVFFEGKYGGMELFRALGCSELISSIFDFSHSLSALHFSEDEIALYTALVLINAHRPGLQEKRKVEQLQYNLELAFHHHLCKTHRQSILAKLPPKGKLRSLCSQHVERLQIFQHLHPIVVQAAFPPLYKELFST
Put plainly: Gal4-RORγ Luciferase Reporter Assay in HEK-293T Cells. The conditions noted are these: HEK-293 cells. The class given is cell-based. The gist of the method:
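In transfected HEK-293 cells (Gal4-RORγ-LBD, Gal4-luciferase), test agents with 2 μM ursolic acid were incubated overnight at 37 °C before luminescent detection. Values are relative to the ursolic-acid-free, compound-free signal (100).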
On the technique in general: Reporter assays use an easily measured gene product as a stand-in for the process of interest.

For the next assay, the target named is T2, RORγ-LBD (Homo sapiens, UniProt P51449).
T2 construct: made in house; host or cells: SF9 cells (baculovirus)
T2 sequence (P51449 269-508 limits assumed): T1 sequence (P51449 269-508 limits assumed)
Put plainly: RORγ-Ligand Binding Domain (LBD) TR-FRET Assay.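 On TR-FRET Assay Max Response: 665/615 nm ratio relative to signal without ursolic acid or compound set at 100.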 The class given is biochemical. The procedure, abridged:
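Lysate from SF9 cells expressing His-RORγ-LBD is diluted to about 3 nM final in 50 mM Tris pH 7.0 assay buffer. A biotin-tagged SRC1 LXXLL peptide goes in at 200 nM final, plus ursolic acid at 2 μM final. Test compounds carry 1% DMSO final; signal read by TR-FRET.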
In general terms: In TR-FRET formats the signal depends on donor and acceptor labels being close together.

The mark [1] stands for this setting: luciferase reporter, with 2 μM ursolic acid.

pEC50: −log10 of the molar value.

One may read the pEC50 as the negative decadic logarithm of the EC50, by convention in mol/L. Read a low pEC50 as a large EC50. For `CC(C)(C[C@H]1CN(S(=O)(=O)c2cccc(C(F)(F)F)c2)c2cc(-c3cc(F)cc(F)c3F)ccc2O1)C(=O)O` [Compound 32X, (S)-2,2-dimethyl-3-(4-((3-(trifluoromethyl)phenyl)sulfonyl)-6-(2,3,5-trifluorophenyl)-3,4-dihydro-2H-benzo[b][1,4]oxazin-2-yl)propanoic acid], at Gal4-RORγ-LBD (2 μM ursolic acid), the pEC50 was more than 6.30 and the “Gal4-RORγ Assay Max Response” value was “** (The symbol “**” indicates a value in the range of greater than 90 to 150)”. Also, on RORγ-LBD, the negative-log EC50 (pEC50) was more than 6.30 and the “TR-FRET Assay Max Response” value is “*** (The symbol “***” indicates a value in the range of greater than 150 to 200)”.
In the case of `CC(C)(C[C@H]1CN(S(=O)(=O)c2cccc(C(F)(F)F)c2)c2cc(-c3cc(OC(F)F)ccc3F)ccc2O1)C(=O)O` [Compound 32BI, (S)-3-(6-(5-(difluoromethoxy)-2-fluorophenyl)-4-((3-(trifluoromethyl)phenyl)sulfonyl)-3,4-dihydro-2H-benzo[b][1,4]oxazin-2-yl)-2,2-dimethylpropanoic acid], on Gal4-RORγ-LBD (2 μM ursolic acid), the pEC50 was more than 6.30 and the “Gal4-RORγ Assay Max Response” value is “** (The symbol “**” indicates a value in the range of greater than 90 to 150)”. Moreover, on RORγ-LBD, the pEC50 is more than 6.30 and the “TR-FRET Assay Max Response” value was “*** (The symbol “***” indicates a value in the range of greater than 150 to 200)”.
With `O=C(O)CC[C@H]1CN(S(=O)(=O)c2cccc(C(F)(F)F)c2)c2cc(-c3cncc(C(F)(F)F)c3)ccc2O1` [Compound 2AK, (S)-3-(4-((3-(trifluoromethyl)-phenyl)sulfonyl)-6-(5-(trifluoromethyl)pyridin-3-yl)-3,4-dihydro-2H-benzo[b][1,4]oxazin-2-yl)propanoic acid], at Gal4-RORγ-LBD (setting [1]), the pEC50 is more than 6.30 and the “Gal4-RORγ Assay Max Response” value was “** (The symbol “**” indicates a value in the range of greater than 90 to 150)”. Besides, at RORγ-LBD, the pEC50 is more than 6.30 and the “TR-FRET Assay Max Response” value is “**** (The symbol “****” indicates a value greater than 200)”.
For `O=C(O)CC[C@H]1CN(S(=O)(=O)c2cccc(C(F)(F)F)c2)c2cc(-c3cc(C(F)(F)F)cc(F)c3F)ccc2O1` [Compound 4AS, (S)-3-(6-(2,3-difluoro-5-(trifluoromethyl)phenyl)-4-((3-(trifluoromethyl)phenyl)-sulfonyl)-3,4-dihydro-2H-benzo[b][1,4]oxazin-2-yl)propanoic acid], at Gal4-RORγ-LBD (setting [1]), the pEC50 is more than 6.30 and the “Gal4-RORγ Assay Max Response” value is reported as “** (The symbol “**” indicates a value in the range of greater than 90 to 150)”. Moreover, at RORγ-LBD, the pEC50 is more than 6.30 and the “TR-FRET Assay Max Response” value is “**** (The symbol “****” indicates a value greater than 200)”.
Consider `O=C(O)CC[C@H]1CN(S(=O)(=O)c2cccc(C(F)(F)F)c2)c2cc(-c3cccc(C(F)(F)F)c3F)ccc2O1` [Compound 2N, (S)-3-(6-(2-fluoro-3-(trifluoromethyl)phenyl)-4-((3-(trifluoromethyl)phenyl)-sulfonyl)-3,4-dihydro-2H-benzo[b][1,4]oxazin-2-yl)propanoic acid], for which, at Gal4-RORγ-LBD (setting [1]), the pEC50 was more than 6.30 and the “Gal4-RORγ Assay Max Response” value is on record as “*** (The symbol “***” indicates a value in the range of greater than 150 to 200)”. Further, on RORγ-LBD, the pEC50 was more than 6.30 and the “TR-FRET Assay Max Response” value is listed as “*** (The symbol “***” indicates a value in the range of greater than 150 to 200)”.
As for `O=C(O)CC[C@H]1CN(S(=O)(=O)c2cccc(C(F)(F)F)c2)c2cc(-c3cc(Cl)cc(Cl)c3)ccc2O1` [Compound 2L, (S)-3-(6-(3,5-dichlorophenyl)-4-((3-(trifluoromethyl)phenyl)-sulfonyl)-3,4-dihydro-2H-benzo[b][1,4]oxazin-2-yl)propanoic acid], on Gal4-RORγ-LBD (setting [1]), the pEC50 is more than 6.30 and the “Gal4-RORγ Assay Max Response” value was “*** (The symbol “***” indicates a value in the range of greater than 150 to 200)”. For the same compound, at RORγ-LBD, the pEC50 was more than 6.30 and the “TR-FRET Assay Max Response” value is recorded as “*** (The symbol “***” indicates a value in the range of greater than 150 to 200)”.
As for `CC[C@@H](C[C@H]1CN(S(=O)(=O)c2cccc(C(F)(F)F)c2)c2cc(-c3cc(F)cc(F)c3Cl)ccc2O1)C(=O)O` [Compound 46G, (S)-2-(((S)-6-(2-chloro-3,5-difluorophenyl)-4-((3-(trifluoro-methyl)phenyl)sulfonyl)-3,4-dihydro-2H-benzo[b][1,4]oxazin-2-yl)methyl)butanoic acid], on Gal4-RORγ-LBD (2 μM ursolic acid), the pEC50 was more than 6.30 and the “Gal4-RORγ Assay Max Response” value is “** (The symbol “**” indicates a value in the range of greater than 90 to 150)”. In addition, at RORγ-LBD, the pEC50 is more than 6.30 and the “TR-FRET Assay Max Response” value is reported as “** (The symbol “**” indicates a value in the range of greater than 90 to 150)”.
Regarding `CC(C)(C)OC(=O)NCC[C@H]1CN(S(=O)(=O)c2cccc(C(F)(F)F)c2)c2cc(-c3cc(F)ccc3F)ccc2O1` [Compound 12, tert-butyl (S)-(2-(6-(2,5-difluorophenyl)-4-((3-(trifluoromethyl)phenyl)sulfonyl)-3,4-dihydro-2H-benzo[b][1,4]oxazin-2-yl)ethyl)carbamate], on Gal4-RORγ-LBD (setting [1]), the pEC50 was more than 6.30 and the “Gal4-RORγ Assay Max Response” value is listed as “* (The symbol “*” indicates a value in the range of 25 to 90)”. Moreover, at RORγ-LBD, the pEC50 is more than 6.30 and the “TR-FRET Assay Max Response” value is on record as “**** (The symbol “****” indicates a value greater than 200)”.
Take `CC(C)c1cccc(S(=O)(=O)N2C[C@H](CCNC(=O)C(C)(C)O)Oc3ccc(-c4cccc(N(C)C)n4)cc32)c1` [Compound 30G, (S)-N-(2-(6-(6-(dimethylamino)-pyridin-2-yl)-4-((3-isopropyl-phenyl)sulfonyl)-3.,4-dihydro-2H-benzo[b][1,4]oxazin-2-yl)ethyl)-2-hydroxy-2-methylpropanamide]: on Gal4-RORγ-LBD (setting [1]), the pEC50 is more than 6.30 and the “Gal4-RORγ Assay Max Response” value is “* (The symbol “*” indicates a value in the range of 25 to 90)”. Moreover, at RORγ-LBD, the pEC50 was more than 6.30 and the “TR-FRET Assay Max Response” value is given as “**** (The symbol “****” indicates a value greater than 200)”.
Take `COc1cc(F)cc(-c2ccc3c(c2)N(S(=O)(=O)c2cccc(C(F)(F)F)c2)C[C@H](CNC(=O)C(C)(C)O)O3)c1F` [Compound 30L, (S)-N-((6-(2,5-difluoro-3-methoxyphenyl)-4-((3-(trifluoromethyl)phenyl)sulfonyl)-3,4-dihydro-2H-benzo[b][1,4]oxazin-2-yl)methyl)-2-hydroxy-2-methylpropanamide]: on Gal4-RORγ-LBD (setting [1]), the pEC50 was more than 6.30 and the “Gal4-RORγ Assay Max Response” value was “* (The symbol “*” indicates a value in the range of 25 to 90)”. For the same compound, at RORγ-LBD, the pEC50 was more than 6.30 and the “TR-FRET Assay Max Response” value is listed as “**** (The symbol “****” indicates a value greater than 200)”.
In the case of `CC(C)(C[C@H]1CN(S(=O)(=O)c2cccc(C(F)(F)F)c2)c2cc(-c3cc(F)ccc3F)ccc2O1)NS(C)(=O)=O` [Compound 30DE, (S)-N-(1-(6-(2,5-difluoro-phenyl)-4-((3-(trifluoromethyl)-phenyl)sulfonyl)-3,4-dihydro-2H-benzo[b][1,4]oxazin-2-yl)-2-methylpropan-2-yl)methane-sulfonamide], at Gal4-RORγ-LBD (2 μM ursolic acid), the pEC50 is more than 6.30 and the “Gal4-RORγ Assay Max Response” value is given as “* (The symbol “*” indicates a value in the range of 25 to 90)”. Moreover, at RORγ-LBD, the pEC50 was more than 6.30 and the “TR-FRET Assay Max Response” value is on record as “*** (The symbol “***” indicates a value in the range of greater than 150 to 200)”.
On to `CC(C)(C)C(=O)NC[C@H]1CN(S(=O)(=O)c2cccc(C(F)(F)F)c2)c2cc(-c3cc(F)ccc3F)ccc2O1` [Compound 30AO, (S)-N-((6-(2,5-difluorophenyl)-4-((3-(trifluoromethyl)phenyl)-sulfonyl)-3,4-dihydro-2H-benzo[b][1,4]oxazin-2-yl)methyl)pivalamide], for which, at Gal4-RORγ-LBD (setting [1]), the pEC50 is more than 6.30 and the “Gal4-RORγ Assay Max Response” value is given as “* (The symbol “*” indicates a value in the range of 25 to 90)”. On RORγ-LBD, the pEC50 is more than 6.30 and the “TR-FRET Assay Max Response” value is on record as “**** (The symbol “****” indicates a value greater than 200)”.
For `COc1ccc(-c2ccc3c(c2)N(S(=O)(=O)c2cccc(C(F)(F)F)c2)C[C@H](CCC(=O)O)O3)cc1Cl` [Compound 2AN, (S)-3-(6-(3-chloro-4-methoxyphenyl)-4-((3-(trifluoromethyl)phenyl)-sulfonyl)-3,4-dihydro-2H-benzo[b][1,4]oxazin-2-yl)propanoic acid], at Gal4-RORγ-LBD (setting [1]), the pEC50 is more than 6.30 and the “Gal4-RORγ Assay Max Response” value is reported as “** (The symbol “**” indicates a value in the range of greater than 90 to 150)”. On RORγ-LBD, the pEC50 is more than 6.30 and the “TR-FRET Assay Max Response” value is “**** (The symbol “****” indicates a value greater than 200)”.
In the case of `O=C(CC[C@H]1CN(S(=O)(=O)c2cccc(C(F)(F)F)c2)c2cc(-c3cccc(C(F)(F)F)n3)ccc2O1)N1CCS(=O)(=O)CC1` [Compound 23G, (S)-1-(1,1-dioxidothio-morpholino)-3-(4-((3-(trifluoro-methyl)phenyl)sulfonyl)-6-(6-(trifluoromethyl)pyridin-2-yl)-3,4-dihydro-2H-benzo[b][1,4]-oxazin-2-yl)propan-1-one], on Gal4-RORγ-LBD (setting [1]), the pEC50 is more than 6.30 and the “Gal4-RORγ Assay Max Response” value is “** (The symbol “**” indicates a value in the range of greater than 90 to 150)”. In addition, at RORγ-LBD, the pEC50 is more than 6.30 and the “TR-FRET Assay Max Response” value was “**** (The symbol “****” indicates a value greater than 200)”.
